Laboratory results reported in patent US20230203482A1, “Methods of Rescuing Stop Codons via Genetic Reassignment with ACE-tRNA” (THE WISTAR INSTITUTE OF ANATOMY AND BIOLOGY, priority 2017, published 2023).

B1: Glychr19.trna2: top performing glycine ACE-tRNA UGA suppressor, SEQ ID NO: 53 (nucleic acid)
chain: GCGTTGGTGGTATAGTGGTTAGCATAGCTGCCTTCAAAGCAGTTGACCCGGGTTCGATTCCCGGCCAACGCA
modifications: chemistry not fully specified

Test system: CFTR W1282X
Test: CFTR W1282X rescue, western blot in HEK cells
Assay type: cell-based, human
Details: CFTR W1282X cDNA co-expressed in HEK cells, antibody M3A7
Description: To assess is these novel tRNA could rescue CFTR channels harboring nonsense codons, they were co-expressed in mammalian HEK cells with a CFTR W1282X cDNA plasmid. The cellular preparations were analyzed by standard biochemical approaches via Western blot assessment of CFTR protein. […] Specifically, the “B” and “C” bands represent the full-length and fully mature, post-translationally proceeded CFTR protein at the cell surface, respectively. […] FIG. 9.
For expression in mammalian cells, the cDNA for the coding region and 200 base-pair of the 3′ untranslated region (UTR) of human CFTR was ligated into pcDNA3.1(+) (Promega, USA) using the KpnI and XbaI restriction enzymes. The G542tga and W1282tga mutations were introduced using QuickChange XL II (Stratagene, USA). For expression in Xenopus laevis oocytes, the cDNA for the coding region and 140 base-pair of the 5′ and 244 base-pair 3′ UTR of human CFTR was ligated into pGEM-HE (Promega, USA). Bothe the G542tga and W1282tga mutations were introduced using QuickChange XL II. The cDNA encoding the E. coli histidinol dehydrogenase was codon optimized for Mus musculus and synthesized (BioBasic Inc, Canada) with a c-terminal 8xHis-Strep-tag for protein purification from mammalian cells. The synthesized cDNA was ligated into pcDNA3.1(+) using EcoRI and XhoI restriction sites. […]

| Molecule | rescue of full-length CFTR protein (B and C bands) |
| --- | --- |
| Trpchr17.trna39: top performing tryptophan ACE-tRNA UGA suppressor, SEQ ID NO: 48 | robust populations of ‘B’ and ‘C’ CFTR immunopositive (antibody MA37) bands |
| B1 | robust populations of ‘B’ and ‘C’ CFTR immunopositive (antibody MA37) bands |
